# Source: the supplement of paper PMC13207355
# Where a name gives a salt, the structure may show the parent alone.
# How the values were obtained:
# Conditions in all cases: exposure time: 72 h
# [1] = system: E13 (patient-derived glioblastoma stem cells of classical subtype); assay: surviving fraction (nuclei count normalised to DMSO); higher = more cells surviving (less toxic)
# [2] = system: E21 (patient-derived glioblastoma stem cells of mesenchymal subtype); assay: as above
# [3] = system: E28 (patient-derived glioblastoma stem cells of classical subtype); assay: as above
# [4] = system: E31 (patient-derived glioblastoma stem cells of proneural subtype); assay: as above
# [5] = system: E34 (patient-derived glioblastoma stem cells of proneural subtype); assay: as above
# [6] = system: E57 (patient-derived glioblastoma stem cells of mesenchymal subtype); assay: as above
# [7] = system: FT3469 (normal neural stem cell line); assay: as above
# [8] = system: E13; assay: phenotypic distance (Euclidean, principal components) from DMSO controls (arbitrary units); higher = stronger morphological change
# [9] = system: E21; assay: as above
# [10] = system: E28; assay: as above
# [11] = system: E31; assay: as above
# [12] = system: E34; assay: as above
# [13] = system: E57; assay: as above
# [14] = system: FT3469; assay: as above
# 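Throughout, for phenotypic distance (Euclidean, principal components) from DMSO controls: cell Painting imaging in 384-well plates, CellProfiler features reduced to at least 20 principal components, Euclidean distance versus same-plate DMSO vehicle wells (0.1% v/v), median over six images per well.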
# 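Throughout, for surviving fraction (nuclei count normalised to DMSO): nuclei counted by high-content imaging of Hoechst-stained cells in laminin-coated 384-well plates, relative to 0.1% DMSO vehicle wells, with staurosporine as cell-death control.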
structure (smiles),measurement,setting,value
CNCCc1ccccn1 [Betahistine mesylate],surviving fraction,[1]; 4.1 nM,0.978
same,surviving fraction,[1]; 12.3 nM,0.933
same,surviving fraction,[1]; 37 nM,1.01
same,surviving fraction,[1]; 111.1 nM,1.13
same,surviving fraction,[1]; 333.3 nM,0.991
same,surviving fraction,[1]; 1000 nM,1.05
same,surviving fraction,[1]; 3000 nM,1.08
same,surviving fraction,[2]; 4.1 nM,1.01
same,surviving fraction,[2]; 12.3 nM,1.06
same,surviving fraction,[2]; 37 nM,0.973
same,surviving fraction,[2]; 111.1 nM,0.957
same,surviving fraction,[2]; 333.3 nM,1.08
same,surviving fraction,[2]; 1000 nM,1.01
same,surviving fraction,[2]; 3000 nM,1.17
same,surviving fraction,[3]; 4.1 nM,0.99
same,surviving fraction,[3]; 12.3 nM,1.1
same,surviving fraction,[3]; 37 nM,1.08
same,surviving fraction,[3]; 111.1 nM,0.858
same,surviving fraction,[3]; 333.3 nM,1.04
same,surviving fraction,[3]; 1000 nM,1.1
same,surviving fraction,[3]; 3000 nM,1.2
same,surviving fraction,[4]; 4.1 nM,0.967
same,surviving fraction,[4]; 12.3 nM,1.11
same,surviving fraction,[4]; 37 nM,0.864
same,surviving fraction,[4]; 111.1 nM,1.01
same,surviving fraction,[4]; 333.3 nM,0.976
same,surviving fraction,[4]; 1000 nM,1.09
same,surviving fraction,[4]; 3000 nM,1.1
same,surviving fraction,[5]; 4.1 nM,0.797
same,surviving fraction,[5]; 12.3 nM,0.969
same,surviving fraction,[5]; 37 nM,0.928
same,surviving fraction,[5]; 111.1 nM,1.16
same,surviving fraction,[5]; 333.3 nM,1.11
same,surviving fraction,[5]; 1000 nM,1.1
same,surviving fraction,[5]; 3000 nM,0.927
same,surviving fraction,[6]; 4.1 nM,0.99
same,surviving fraction,[6]; 12.3 nM,0.95
same,surviving fraction,[6]; 37 nM,0.987
same,surviving fraction,[6]; 111.1 nM,1.04
same,surviving fraction,[6]; 333.3 nM,1.01
same,surviving fraction,[6]; 1000 nM,0.983
same,surviving fraction,[6]; 3000 nM,0.999
same,surviving fraction,[7]; 4.1 nM,0.941
same,surviving fraction,[7]; 12.3 nM,1.08
same,surviving fraction,[7]; 37 nM,1.16
same,surviving fraction,[7]; 111.1 nM,0.935
same,surviving fraction,[7]; 333.3 nM,1.23
same,surviving fraction,[7]; 1000 nM,1.18
same,surviving fraction,[7]; 3000 nM,1.19
same,phenotypic distance,[8]; 4.1 nM,0.901
same,phenotypic distance,[8]; 12.3 nM,0.868
same,phenotypic distance,[8]; 37 nM,1.14
same,phenotypic distance,[8]; 111.1 nM,0.834
same,phenotypic distance,[8]; 333.3 nM,0.663
same,phenotypic distance,[8]; 1000 nM,0.868
same,phenotypic distance,[8]; 3000 nM,0.634
same,phenotypic distance,[9]; 4.1 nM,1.28
same,phenotypic distance,[9]; 12.3 nM,1.7
same,phenotypic distance,[9]; 37 nM,0.97
same,phenotypic distance,[9]; 111.1 nM,1.14
same,phenotypic distance,[9]; 333.3 nM,1.32
same,phenotypic distance,[9]; 1000 nM,1.57
same,phenotypic distance,[9]; 3000 nM,1.61
same,phenotypic distance,[10]; 4.1 nM,0.708
same,phenotypic distance,[10]; 12.3 nM,1.01
same,phenotypic distance,[10]; 37 nM,0.524
same,phenotypic distance,[10]; 111.1 nM,0.891
same,phenotypic distance,[10]; 333.3 nM,0.512
same,phenotypic distance,[10]; 1000 nM,0.607
same,phenotypic distance,[10]; 3000 nM,0.451
same,phenotypic distance,[11]; 4.1 nM,0.624
same,phenotypic distance,[11]; 12.3 nM,0.892
same,phenotypic distance,[11]; 37 nM,0.655
same,phenotypic distance,[11]; 111.1 nM,0.749
same,phenotypic distance,[11]; 333.3 nM,0.468
same,phenotypic distance,[11]; 1000 nM,0.554
same,phenotypic distance,[11]; 3000 nM,1.08
same,phenotypic distance,[12]; 4.1 nM,0.696
same,phenotypic distance,[12]; 12.3 nM,0.75
same,phenotypic distance,[12]; 37 nM,0.843
same,phenotypic distance,[12]; 111.1 nM,1.03
same,phenotypic distance,[12]; 333.3 nM,0.558
same,phenotypic distance,[12]; 1000 nM,0.851
same,phenotypic distance,[12]; 3000 nM,1.25
same,phenotypic distance,[13]; 4.1 nM,4.51
same,phenotypic distance,[13]; 12.3 nM,1.49
same,phenotypic distance,[13]; 37 nM,1.15
same,phenotypic distance,[13]; 111.1 nM,1.23
same,phenotypic distance,[13]; 333.3 nM,0.721
same,phenotypic distance,[13]; 1000 nM,0.773
same,phenotypic distance,[13]; 3000 nM,0.773
same,phenotypic distance,[14]; 4.1 nM,0.827
same,phenotypic distance,[14]; 12.3 nM,0.751
same,phenotypic distance,[14]; 37 nM,0.948
same,phenotypic distance,[14]; 111.1 nM,0.634
same,phenotypic distance,[14]; 333.3 nM,1.15
same,phenotypic distance,[14]; 1000 nM,0.929
same,phenotypic distance,[14]; 3000 nM,0.86
